According to PMC11012124, “Synthesis of Novel Triazine-Based Chalcones and 8,9-dihydro-7H-pyrimido[4,5-b][1,4]diazepines as Potential Leads in the Search of Anticancer, Antibacterial and Antifungal Agents” (International Journal of Molecular Sciences, 2024):
≈ marks a conversion by molar mass, not a printed value.

Experiments:
HS 578T = experiment: cells; settings: Homo sapiens, 48 h; for CC50: read-out: LC50
SK-OV-3 = experiment: cells; settings: Homo sapiens, SK-OV-3, 48 h; for CC50: read-out: LC50
MOLT-4 = experiment: cells; settings: Homo sapiens, MOLT-4, 48 h; for CC50: read-out: LC50
MDA-MB-231/ATCC = experiment: cells; settings: Homo sapiens, MDA-MB-231, 48 h; for CC50: read-out: LC50
NCI/ADR-RES = experiment: cells; settings: Homo sapiens, 48 h; for CC50: read-out: LC50
HOP-92 = experiment: cells; settings: Homo sapiens, HOP-92, 48 h; for CC50: read-out: LC50
UACC-62 = experiment: cells; settings: Homo sapiens, UACC-62, 48 h; for CC50: read-out: LC50
MDA-MB-468 = experiment: cells; settings: Homo sapiens, MDA-MB-468, 48 h; for CC50: read-out: LC50
HT29 = experiment: cells; settings: Homo sapiens, HT-29, 48 h; for CC50: read-out: LC50
OVCAR-3 = experiment: cells; settings: Homo sapiens, OVCAR-3, 48 h; for CC50: read-out: LC50
T-47D = experiment: cells; settings: Homo sapiens, T47D, 48 h; for CC50: read-out: LC50
PC-3 = experiment: cells; settings: Homo sapiens, PC-3, 48 h; for CC50: read-out: LC50
LOX IMVI = experiment: cells; settings: Homo sapiens, 48 h; for CC50: read-out: LC50, LOX IMVI, 48 h
TK-10 = experiment: cells; settings: Homo sapiens, TK-10, 48 h; for CC50: read-out: LC50
[1] = tested on: Microsporum gypseum (CCC 115); experiment: Antifungal broth microdilution (CLSI); format: cell-based; settings: Nannizzia gypsea; Mg: Microsporum gypseum
In short: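 Broth microdilution followed CLSI M27-A3 for yeasts and the filamentous-fungi reference method, in 200 μL final volume with DMSO-matched growth controls. Plates were incubated in the dark and humid at 30 °C for a time suited to each fungus; testing was done in triplicate.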

CAKI-1 = experiment: cells; settings: Homo sapiens, CAKI-1, 48 h; for CC50: read-out: LC50
A498 = experiment: cells; settings: Homo sapiens, A498, 48 h; for CC50: read-out: LC50
SR = experiment: cells; settings: Homo sapiens, 48 h; for CC50: read-out: LC50
K-562 = experiment: cells; settings: Homo sapiens, K562, 48 h; for GI50: K-562, 48 h; for CC50: read-out: LC50
[2] = tested on: M. tuberculosis ATCC 27294; experiment: Antitubercular broth microdilution MIC; format: cell-based; settings: Mycobacterium tuberculosis; M. tuberculosis ATCC 27294 (H37Rv); read-out: Minimum inhibitory concentration (MIC)
NCI-H522 = experiment: cells; settings: Homo sapiens, NCI-H522, 48 h; for CC50: read-out: LC50
SF-539 = experiment: cells; settings: Homo sapiens, SF-539, 48 h; for CC50: read-out: LC50, SF-539, 48 h
MCF7 = experiment: cells; settings: Homo sapiens, MCF7, 48 h; for CC50: read-out: LC50
HCC-2998 = experiment: cells; settings: Homo sapiens, HCC 2998, 48 h; for CC50: read-out: LC50
RXF 393 = experiment: cells; settings: Homo sapiens, RXF 393, 48 h; for CC50: read-out: LC50
DU-145 = experiment: cells; settings: Homo sapiens, DU-145, 48 h; for CC50: read-out: LC50
[3] = Hemolytic activity, spectrophotometric; format: cell-based, human; settings: human, human red blood cells (huRBC), 5% hematocrit, 200 μg/mL, 37 °C

Work on `COc1ccc(/C=C/C(=O)c2ccc(S(=O)(=O)NCCNc3nc(Nc4ccc(F)cc4)nc(N(C)C)n3)cc2)cc1` [24c] yielded a GI50 (HS 578T) of 4.68 µM, a CC50 (HS 578T) greater than 100 µM and a GI50 (SK-OV-3) of 13.9 µM. It also gave a CC50 (SK-OV-3) greater than 100 µM, a GI50 (MOLT-4) of 3.12 µM and a CC50 (MOLT-4) greater than 100 µM. It also gave a GI50 (MDA-MB-231/ATCC) of 2.73 µM, a CC50 (MDA-MB-231/ATCC) of 63 µM and a GI50 (NCI/ADR-RES) of 5.66 µM. The CC50 (NCI/ADR-RES) was greater than 100 µM, the GI50 (HOP-92) was 3.25 µM and the CC50 (HOP-92) was greater than 100 µM. It also gave a GI50 (UACC-62) of 4.79 µM, a CC50 (UACC-62) of 51.6 µM and a GI50 (MDA-MB-468) of 2.57 µM. For the same compound, the CC50 (MDA-MB-468) was 52.6 µM, the GI50 (HT29) was 1.83 µM and the CC50 (HT29) was 7.63 µM. For the same compound, the GI50 (OVCAR-3) was 5.01 µM, the CC50 (OVCAR-3) was 59.4 µM and the GI50 (T-47D) was 3.78 µM. For the same compound, the CC50 (T-47D) was greater than 100 µM, the GI50 (PC-3) was 3.5 µM and the CC50 (PC-3) was greater than 100 µM. It also gave a GI50 (LOX IMVI) of 3.23 µM, a CC50 (LOX IMVI) of 34 µM and a GI50 (TK-10) of 8.09 µM. The CC50 (TK-10) was greater than 100 µM, the MIC [1] was greater than 250 µg/mL and the GI50 (CAKI-1) was 3.34 µM. It also gave a CC50 (CAKI-1) greater than 100 µM, a GI50 (A498) of 10 µM and a CC50 (A498) of 87.8 µM. For the same compound, the GI50 (SR) was 2.97 µM, the CC50 (SR) was greater than 100 µM and the GI50 (K-562) was 3.99 µM. It also gave a CC50 (K-562) greater than 100 µM, an MIC [2] of 25 µg/mL (≈ 42.3 µM) and a GI50 (NCI-H522) of 2.55 µM. For the same compound, the CC50 (NCI-H522) was 67.1 µM, the GI50 (SF-539) was 10.3 µM and the CC50 (SF-539) was 51.2 µM. The GI50 (MCF7) was 1.93 µM, the CC50 (MCF7) was 46.1 µM and the GI50 (HCC-2998) was 5.47 µM. For the same compound, the CC50 (HCC-2998) was 43.2 µM, the GI50 (RXF 393) was 2.59 µM and the CC50 (RXF 393) was 41.7 µM. The GI50 (DU-145) was 7.54 µM, the CC50 (DU-145) was greater than 100 µM and the hemolysis at 24 h, 200 µg/mL [3] was 0.1%.

Work on `CN(C)c1nc(NCCNS(=O)(=O)c2ccc(C3=Nc4c(N)nc(N)nc4NC(c4ccc(C(F)(F)F)cc4)C3)cc2)nc(Nc2ccc(F)cc2)n1` (stereo not drawn) [31g] yielded a GI50 (HS 578T) of 9.03 µM, a CC50 (HS 578T) of 86 µM and a GI50 (SK-OV-3) greater than 86 µM. For the same compound, the CC50 (SK-OV-3) was greater than 86 µM, the GI50 (MOLT-4) was 2.74 µM and the CC50 (MOLT-4) was 86 µM. It also gave a GI50 (NCI/ADR-RES) greater than 86 µM, a CC50 (NCI/ADR-RES) greater than 86 µM and a GI50 (HOP-92) of 2.99 µM. It also gave a CC50 (HOP-92) of 16.9 µM, a GI50 (MDA-MB-468) of 2.67 µM and a CC50 (MDA-MB-468) of 11.7 µM. The GI50 (HT29) was 4.88 µM, the CC50 (HT29) was 18.3 µM and the GI50 (OVCAR-3) was 11.9 µM. It also gave a CC50 (OVCAR-3) of 86 µM, a GI50 (T-47D) of 12 µM and a CC50 (T-47D) of 86 µM. The GI50 (PC-3) was 4.37 µM, the CC50 (PC-3) was 86 µM and the GI50 (LOX IMVI) was 3.14 µM. The CC50 (LOX IMVI) was 12 µM, the GI50 (TK-10) was greater than 86 µM and the CC50 (TK-10) was greater than 86 µM. For the same compound, the MIC [1] was greater than 250 µg/mL, the GI50 (CAKI-1) was 36.8 µM and the CC50 (CAKI-1) was 86 µM. For the same compound, the GI50 (A498) was 22.2 µM, the CC50 (A498) was 77.4 µM and the GI50 (K-562) was 3.51 µM. For the same compound, the CC50 (K-562) was 86 µM, the MIC [2] was 5 µg/mL (≈ 6.65 µM) and the GI50 (NCI-H522) was 17.8 µM. For the same compound, the CC50 (NCI-H522) was 44.8 µM, the GI50 (SF-539) was 6.22 µM and the CC50 (SF-539) was 24.7 µM. It also gave a GI50 (MCF7) of 2.87 µM, a CC50 (MCF7) of 21 µM and a GI50 (HCC-2998) of 4.73 µM. The CC50 (HCC-2998) was 25.9 µM, the GI50 (RXF 393) was 2.57 µM and the CC50 (RXF 393) was 18.8 µM. For the same compound, the GI50 (DU-145) was 38.5 µM, the CC50 (DU-145) was 86 µM and the hemolysis at 24 h, 200 µg/mL [3] was 3%.

In the case of `COc1cc(/C=C/C(=O)c2cc(OC)c(OC)c(OC)c2)ccc1Oc1nc(Nc2ccc(F)cc2)nc(N(C)C)n1` [21d], the GI50 (HS 578T) is reported as 2.39 µM, the CC50 (HS 578T) is reported as greater than 100 µM and the GI50 (SK-OV-3) is reported as 8.42 µM. It also gave a CC50 (SK-OV-3) of 97.4 µM, a GI50 (MOLT-4) of 0.472 µM and a CC50 (MOLT-4) greater than 100 µM. For the same compound, the GI50 (MDA-MB-231/ATCC) was 1.48 µM, the CC50 (MDA-MB-231/ATCC) was 8.63 µM and the GI50 (NCI/ADR-RES) was 1.42 µM. The CC50 (NCI/ADR-RES) was 8.08 µM, the GI50 (HOP-92) was 1.67 µM and the CC50 (HOP-92) was 50.9 µM. The GI50 (UACC-62) was 1.41 µM, the CC50 (UACC-62) was 6.38 µM and the GI50 (MDA-MB-468) was 1.35 µM. For the same compound, the CC50 (MDA-MB-468) was 9.11 µM, the GI50 (HT29) was 1.54 µM and the CC50 (HT29) was 8.22 µM. For the same compound, the GI50 (OVCAR-3) was 2.57 µM, the CC50 (OVCAR-3) was greater than 100 µM and the GI50 (T-47D) was 1.87 µM. The CC50 (T-47D) was greater than 100 µM, the GI50 (PC-3) was 2.77 µM and the CC50 (PC-3) was greater than 100 µM. It also gave a GI50 (LOX IMVI) of 0.478 µM, a CC50 (LOX IMVI) of 4.11 µM and a GI50 (TK-10) of 2.53 µM. The CC50 (TK-10) was 38.1 µM, the MIC [1] was greater than 250 µg/mL and the GI50 (CAKI-1) was 1.98 µM. For the same compound, the CC50 (CAKI-1) was 25.1 µM, the GI50 (A498) was 3.99 µM and the CC50 (A498) was 38.9 µM. For the same compound, the GI50 (SR) was 0.7 µM, the CC50 (SR) was greater than 100 µM and the GI50 (K-562) was 1.4 µM. For the same compound, the CC50 (K-562) was greater than 100 µM, the GI50 (NCI-H522) was 1.47 µM and the CC50 (NCI-H522) was 7.11 µM. The GI50 (SF-539) was 1.64 µM, the CC50 (SF-539) was 5.81 µM and the GI50 (MCF7) was 1.06 µM. The CC50 (MCF7) was 67 µM, the GI50 (HCC-2998) was 2.03 µM and the CC50 (HCC-2998) was 8.52 µM. The GI50 (DU-145) was 3.99 µM, the CC50 (DU-145) was 67.9 µM and the hemolysis at 24 h, 200 µg/mL [3] was 8%.
